Key:
Test in all cases: relative viability (nuclei count vs DMSO), 5 days (fraction); higher = more cells survive
[1] = compound: COc1cc2nccc(Oc3ccc(NC(=O)C4(C(=O)Nc5ccc(F)cc5)CC4)cc3)c2cc1OC [Cabozantinib] + Nc1ncn([C@H]2C[C@H](O)[C@@H](CO)O2)c(=O)n1 [Decitabine] (partner 2 µM)
How it was run: (§1)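 Medians of duplicate plates are given as relative viability. That measure is the nuclei count in treated wells divided by the count in vehicle wells. Counts were taken on 4× images of lung cancer cell lines in 1536-well plates, 5 days after pin-tool dosing the day after seeding with one drug alone or a fixed anchor-drug dose plus five library-drug doses (not always all listed) in √10 steps.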

[2] = compound: C1=CC(=CC=C1NC(=S)NNC2=C(C=C(C=C2[N+](=O)[O-])C(F)(F)F)[N+](=O)[O-])F [Kobe2602] + CCNC(=O)c1noc(-c2cc(C(C)C)c(O)cc2O)c1-c1ccc(CN2CCOCC2)cc1 [Luminespib] (partner 0.01 µM)
How it was run: as §1

[3] = compound: O[C@@H](COc1cccc2ncccc12)CN1CCN([C@@H]2c3ccccc3[C@@H]3[C@H](c4ccccc42)C3(F)F)CC1 [Zosuquidar] + CC(C)C[C@H](NC(=O)[C@H](Cc1ccccc1)NC(=O)c1cnccn1)B(O)O [Bortezomib] (partner 0.002 µM)
How it was run: as §1

[4] = compound: COc1cc2nccc(Oc3ccc(NC(=O)C4(C(=O)Nc5ccc(F)cc5)CC4)cc3)c2cc1OC [Cabozantinib] + O=C(CCCCCCC(=O)Nc1ccccc1)NO [Vorinostat] (partner 1 µM)
How it was run: as §1

Cell Line	relative viability ([1]; first compound 0.02 µM)	relative viability ([1]; first compound 0.06325 µM)	relative viability ([1]; first compound 0.2 µM)	relative viability ([1]; first compound 0.6325 µM)	relative viability ([1]; first compound 2 µM)	relative viability ([2]; first compound 0.2 µM)	relative viability ([2]; first compound 0.6325 µM)	relative viability ([2]; first compound 2 µM)	relative viability ([2]; first compound 6.325 µM)	relative viability ([2]; first compound 20 µM)	relative viability ([3]; first compound 0.01 µM)	relative viability ([3]; first compound 0.03162 µM)	relative viability ([3]; first compound 0.1 µM)	relative viability ([3]; first compound 0.3162 µM)	relative viability ([3]; first compound 1 µM)	relative viability ([4]; first compound 0.02 µM)	relative viability ([4]; first compound 0.06325 µM)	relative viability ([4]; first compound 0.2 µM)	relative viability ([4]; first compound 0.6325 µM)	relative viability ([4]; first compound 2 µM)
201T	0.874	0.945	0.839	0.836	0.826	1.02	1.05	0.993	1.14	0.966	1.09	1.05	0.939	1.05	1.06	0.77	1.03	0.962	0.932	0.969
A549	0.298	0.26	0.263	0.313	0.306															
A-427	0.569	0.589	0.57	0.621	0.596	0.943	0.872	0.85	0.893	0.911	0.923	0.971	0.87	1.06	0.901	0.871	0.865	0.902	0.841	0.951
ABC-1		0.846	1.05	1.05	0.982	0.785	0.851		0.494	0.887	0.361	0.328	0.322	0.379	0.269		1.24	0.99	1.02	0.913
BEN	0.63	0.815	0.7	0.733	0.566	0.507	0.576	0.386	0.481	0.436	0.928	0.734	0.651	0.882	0.773	0.562	0.567	0.565	0.554	0.518
CAL-12T						0.358	1.01	0.241	0.362	0.233	0.974	1.15		1.03	0.735	0.849	0.673	0.801	0.822	0.833
COR-L23	0.449	0.371	0.445	0.441	0.419	0.685	0.64	0.537	0.648	0.684	0.925	0.969	0.893	0.877	1.08	0.367	0.692	0.431	0.407	0.417
COR-L 105	0.606	0.764	0.582	0.735	0.69	0.591	0.896	0.848	0.643	0.719	0.738	0.742	0.899	1.16	0.874	0.847	1.05	0.734	0.839	0.89
Calu-6											0.955	1.05	1.13	1.05	1.15					
ChaGo-K-1	0.551	0.52	0.549	0.534	0.547	0.684	0.53	0.743	0.617	0.507	0.854	0.966	1.08	0.967	0.787	0.741	0.81	0.704	0.72	0.772
EBC-1											0.649	0.553	0.652	0.591	0.547					
EKVX	0.328	0.386	0.261	0.336	0.394	0.9	0.948	0.832	0.871	0.858	1.05	0.975	0.839	0.984	1.02	0.725	0.868		0.708	0.84
EMC-BAC-2	0.998	0.963	1.04	0.994	1.13	1.16	1.16	1.13	1.31	1.14	1.02	1.07	1.02	1.22	1.09	0.279	0.678	0.608	0.456	0.422
EPLC-272H	0.37	0.395	0.33	0.377	0.336	0.259	0.83	0.327	0.363	0.27	0.844	0.956	0.998	1.16	0.938	0.299	0.44	0.402	0.534	0.524
H3255	0.618	0.636		0.685	0.644	0.769	0.981	0.902	0.937	0.878	0.788	0.871	0.661	0.798	0.569	0.887	0.791		0.769	0.926
HARA	0.556	0.653		0.812	0.786	0.752	1.05	0.688	0.776	0.69	1.14	1.14	1.08	1.13	1.14	0.576	0.52		0.529	0.489
HCC-15	0.562	0.788	0.683	0.644	0.536	0.411	0.272	0.301	0.255	0.384	0.925	0.998	0.956	0.995	1.04	0.913	0.893	0.861	0.799	0.824
HCC-44	0.908	0.996	0.981	1	0.987	1.05	0.97	0.984	1.13	0.921	0.872	0.949	0.885	0.952	0.864	1.1	1.29	1.08	1.14	1.08
HCC-78		0.704	0.503	0.489	0.487						0.582	0.392		0.625	0.428		0.415	0.394	0.344	0.295
HCC-366	0.351	0.393	0.336	0.305	0.354						0.946	1.03	1.06	1.08	1.07	0.309	0.381	0.374	0.378	0.429
HCC-827	0.28	0.362		0.36	0.309	0.856	0.793	0.619	0.369	0.831	0.931	0.961	1.05	1.05	0.844	0.837	1.05		0.785	0.526

Cell Line	relative viability ([1]; first compound 0.02 µM)	relative viability ([1]; first compound 0.06325 µM)	relative viability ([1]; first compound 0.2 µM)	relative viability ([1]; first compound 0.6325 µM)	relative viability ([1]; first compound 2 µM)	relative viability ([2]; first compound 0.2 µM)	relative viability ([2]; first compound 0.6325 µM)	relative viability ([2]; first compound 2 µM)	relative viability ([2]; first compound 6.325 µM)	relative viability ([2]; first compound 20 µM)	relative viability ([3]; first compound 0.01 µM)	relative viability ([3]; first compound 0.03162 µM)	relative viability ([3]; first compound 0.1 µM)	relative viability ([3]; first compound 0.3162 µM)	relative viability ([3]; first compound 1 µM)	relative viability ([4]; first compound 0.02 µM)	relative viability ([4]; first compound 0.06325 µM)	relative viability ([4]; first compound 0.2 µM)	relative viability ([4]; first compound 0.6325 µM)	relative viability ([4]; first compound 2 µM)
HOP-62	0.241	0.214	0.22	0.225	0.181	0.933	0.957	0.866	0.88	0.87	0.6	1.01	0.616	0.42	0.906	0.661	0.764	0.669	0.603	0.555
IA-LM											0.925	0.797	0.975	1.03	0.84	0.995	1.18	1	0.946	1.2
LC-2-ad	0.814	0.811	0.772	0.633	0.539	1.01	1.15	0.908	1.12	1.06	1.07	0.975	0.989	1.26	0.933	0.724	0.806	0.767	0.682	0.522
LCLC-97TM1	0.24	0.262	0.252	0.265	0.21	0.749	0.718	0.739	0.741	0.819	0.433	0.538		0.844	0.464	0.24	0.823	0.739	0.781	0.751
LK-2	0.182	0.369	0.336	0.301	0.267	0.189	0.204	0.182	0.154	0.195						0.226	0.178	0.385	0.309	0.348
NCI-H358	0.226	0.224	0.214	0.218	0.233	0.364	0.324	0.237	0.477	0.349						0.683	0.905	0.556	0.623	0.534
NCI-H522	0.577	0.655	0.564	0.74	0.654	1.08	1.25	1.31	1.09	1.03						0.737	1.01	1.03	0.902	0.902
NCI-H1299											1.01	1.01	0.997	0.962	1.03					
NCI-H1395	0.786	0.741	0.682	0.713	0.654	0.691	0.869	0.815	0.726	0.662						0.623	0.831	0.703	0.685	0.656
NCI-H1563						0.579	0.492	0.52	0.543	0.512	0.842	0.882	0.807	1.04	0.858					
NCI-H1623						0.578	0.427	0.571	0.368	0.491										
NCI-H1648	0.469	0.524		0.532	0.516											0.425	0.589		0.55	0.408
NCI-H1703											0.441	0.329	0.371	0.397	0.567					
NCI-H1792		0.557	0.609	0.588	0.444	0.319	0.58	0.47	0.558	0.517	0.836	0.495	0.906	0.907	0.96					
NCI-H1793	0.4	0.555		0.469	0.489	0.185	0.201	0.217	0.47	0.205						0.652	1.12		0.744	0.759
NCI-H1944	0.477	0.483	0.42	0.481	0.466	0.74	0.801	0.608	0.739	0.645						0.615	0.617	0.527	0.582	0.637
NCI-H2170	0.436	0.465	0.446	0.487	0.458	0.856	0.922	0.703	0.944	0.719						0.818	0.821	0.704	0.847	0.914
NCI-H2228						0.129	0.177	0.198	0.145	0.165	1.06	1.02	0.634	1.14	1.17	0.732	1.05	0.763	0.74	0.707
NCI-H2342	0.642	0.832	0.765	0.788	0.544	0.826	0.735	0.741	0.692	0.773						0.735	0.776	0.697	0.798	0.724
SK-MES-1	0.449	0.412	0.373	0.431	0.399	0.67	0.778	0.853	0.832	0.406						1.06	1.27	1.16	1.11	1.16
SW 900	0.44	0.508	0.412	0.475	0.556	0.164	0.185	0.191	0.166	0.199						0.521	0.678	0.411	0.515	0.464
